Laboratory results from patent US11505533B2, “Metabolically stable N-acylaminooxadiazoles useful as antibacterial agents” (MICROBIOTIX, INC., priority 2017, dated 2022).
Values after ≈ are worked out from the molar mass of the structure shown.

Legend:
MRSA-1094 (MDR) = type: cell-based; settings: Staphylococcus aureus; MRSA-1094 (MDR); read-out: MIC
[1] = Mammalian cell cytotoxicity
MRSA USA 300 (BAA-1717) = type: cell-based; settings: Staphylococcus aureus; MRSA USA 300 (BAA-1717); read-out: MIC
[2] = tested on: E. coli (700, TolC+) efflux pos; type: cell-based; settings: Escherichia coli; E. coli (700, TolC+) efflux pos; read-out: MIC
E. coli TolC(−) [3] = assay: TolC(−) MIC (NB); type: cell-based; settings: Escherichia coli, read-out: TolC(−) MIC (μM)(NB)
[4] = Aqueous solubility, nephelometry; settings: water, kinetic from dmso stock
[5] = tested on: S. aureus ATCC 25923 (MSSA. osteomyelitis isolate); type: cell-based; settings: Staphylococcus aureus; S. aureus ATCC 25923 (MSSA); read-out: MIC
[6] = tested on: S. aureus WTBF-19 (MSSA. osteomyelitis isolate); type: cell-based; settings: Staphylococcus aureus; S. aureus WTBF-19 (MSSA); read-out: MIC
Caco-2 permeability = type: in vitro ADME; settings: human, direction not given
Text: Res., 15(5): 726-733 (1998).

Mouse serum stability = settings: 5 μM, 37° C., 4 h
[7] = tested on: S. aureus NRS-77 (spec-res); type: cell-based; settings: Staphylococcus aureus, NRS77; S. aureus NRS-77 (spec-res); read-out: MIC
MRSA N315 NRS-70 = type: cell-based; settings: Staphylococcus aureus; MRSA N315 NRS-70; read-out: MIC
[8] = Microsomal stability + NADPH; settings: mouse liver microsomes, 0.5 hr at 37° C.
S. pneumoniae 49619 = type: cell-based; settings: Streptococcus pneumoniae; S. pneumoniae 49619; read-out: MIC
M. pneumoniae 15531 = type: cell-based; settings: Mycoplasmoides pneumoniae; M. pneumoniae 15531; read-out: MIC
[9] = tested on: S. aureus (ATCC 35556, spec, kan-res); type: cell-based; settings: Staphylococcus aureus, ATCC35556
[10] = tested on: Moraxella catarrhalis 8176; type: cell-based; settings: read-out: MIC
N. gonorrhoeae 49226 = type: cell-based; settings: Neisseria gonorrhoeae; N. gonorrhoeae 49226; read-out: MIC
[11] = tested on: Legionella pneumophila 33153; assay: microbe, parasite or virus in culture; type: cell-based
[12] = tested on: Haemophilus influenza 35056; type: cell-based; settings: Haemophilus influenza 35056; read-out: MIC
[13] = tested on: S. aureus (MRSA-1234547263, Cip-res); type: cell-based; settings: Staphylococcus aureus; S. aureus (MRSA-1234547263, Cip-res); read-out: MIC
[14] = Mouse serum binding, equilibrium dialysis
E. coli TolC(−) [15] = settings: MIC in the presence of 10% fetal calf serum versus without

Structure (SMILES) | MIC (MRSA-1094 (MDR)) [mg/L] | CC50 [1] [µM] | MIC [2] [mg/L] | MIC (E. coli TolC(−) [3]) [µM] | solubility [4] [µM] | MIC [5] [mg/L] | Serum Stability (% remain) (Mouse serum stability) [%] | Microsomal Stability + NADPH % degraded [8] [%] | fraction unbound [14] | Fold Serum Shift vs. TolC(−) (E. coli TolC(−) [15]) [fold] | further results
CCN(c1ccccc1)c1ccc(C(=O)Nc2nnc(-c3ccc(F)cc3)o2)cc1 [compound 4285] | 2.52 (≈ 6.26 µM) | 59.9 | > 40 | 2.48 (≈ 0.998 µg/mL) | 3.12 (≈ 1.26 µg/mL) | 6.34 (≈ 15.8 µM) |  |  |  |  | MIC (MRSA USA 300 (BAA-1717)): 0.63 mg/L (≈ 1.57 µM)
CC(C)(C)OC(=O)N1CC(Oc2ccc(C(=O)Nc3nnc(-c4ccc(F)cc4)o3)cc2)C1 [compound 4288] | 5.68 (≈ 12.5 µM) | 6.6 | > 45 | 3.51 (≈ 1.59 µg/mL) | 25 (≈ 11.4 µg/mL) | 7.16 (≈ 15.8 µM) |  |  |  |  | MIC (MRSA USA 300 (BAA-1717)): 2.01 mg/L (≈ 4.42 µM)
O=C(Nc1nnc(-c2ccc(F)cc2)o1)c1ccc(OC2CCCCC2)cc1 [compound 4292] | 0.75 (≈ 1.97 µM) | 23.7 | > 39 | 1.1 (≈ 0.421 µg/mL) | 6.25 (≈ 2.38 µg/mL) | 1.23 (≈ 3.22 µM) | 82 | 20 | < 0.01 |  | MIC [6]: 1.19 mg/L (≈ 3.12 µM); Papp (Caco-2 permeability): 10 nm/s; MIC [7]: 1.17 mg/L (≈ 3.07 µM); MIC (MRSA N315 NRS-70): 1.36 mg/L (≈ 3.57 µM); MIC (MRSA USA 300 (BAA-1717)): 0.3 mg/L (≈ 0.787 µM); MIC (S. pneumoniae 49619): 4.77 mg/L (≈ 12.5 µM); MIC (M. pneumoniae 15531): 19.1 mg/L (≈ 50.1 µM); MIC [9]: 0.95 mg/L (≈ 2.49 µM); MIC [10]: < 0.02 mg/L; MIC (N. gonorrhoeae 49226): 0.1 mg/L (≈ 0.262 µM); MIC [11]: 0.61 mg/L (≈ 1.6 µM); MIC [12]: > 39 mg/L; MIC [13]: 0.67 mg/L (≈ 1.76 µM)
O=C(Nc1nnc(-c2ccc(F)cc2)o1)c1ccc(OC2CCCC2)cc1 [compound 4293] | 0.72 (≈ 1.96 µM) | 31.8 | > 36 | 1.39 (≈ 0.511 µg/mL) | 3.12 (≈ 1.15 µg/mL) | 1.15 (≈ 3.13 µM) | 88 | 59 | 0.001 |  | MIC (MRSA USA 300 (BAA-1717)): 0.29 mg/L (≈ 0.789 µM); MIC (S. pneumoniae 49619): 4.59 mg/L (≈ 12.5 µM); MIC (M. pneumoniae 15531): 18.4 mg/L (≈ 50.1 µM); MIC [10]: < 0.02 mg/L; MIC (N. gonorrhoeae 49226): 0.09 mg/L (≈ 0.245 µM); MIC [11]: 0.59 mg/L (≈ 1.61 µM); MIC [12]: 12.2 mg/L (≈ 33.3 µM)
O=C(Nc1nnc(-c2ccc(F)cc2)o1)c1ccc(Oc2cccc(O)c2)cc1 [compound 4304] |  | > 100 |  | 3.51 (≈ 1.37 µg/mL) | 50 (≈ 19.6 µg/mL) |  |  | 85 | < 0.01 | 28.5 | Papp (Caco-2 permeability): 137 nm/s
Cc1ccccc1Oc1ccc(C(=O)Nc2nnc(-c3ccc(F)cc3)o2)cc1 [compound 4307] |  | 65 |  | 1.56 (≈ 0.608 µg/mL) | 12.5 (≈ 4.87 µg/mL) |  |  | <30 |  |  | 
Cc1cc(C)cc(Oc2ccc(C(=O)Nc3nnc(-c4ccc(F)cc4)o3)cc2)c1 [compound 4308] |  | 32 |  | 1.56 (≈ 0.63 µg/mL) | 3.13 (≈ 1.26 µg/mL) |  |  | <30 |  |  | 
COc1cccc(Oc2ccc(C(=O)Nc3nnc(-c4ccc(F)cc4)o3)cc2)c1 [compound 4309] |  | > 100 |  | 0.984 (≈ 0.399 µg/mL) | 6.25 (≈ 2.53 µg/mL) |  |  | <30 |  |  | 
COc1ccc(Oc2ccc(C(=O)Nc3nnc(-c4ccc(F)cc4)o3)cc2)cc1 [compound 4310] |  | > 100 |  | 0.781 (≈ 0.317 µg/mL) | 6.25 (≈ 2.53 µg/mL) |  |  | <30 |  |  | 
O=C(Nc1nnc(-c2ccc(F)cc2)o1)N1Cc2ccccc2C1 [compound 4330] | 2.03 (≈ 6.26 µM) | > 100 | > 32 | 6.25 (≈ 2.03 µg/mL) | 3.13 (≈ 1.02 µg/mL) | ≥ 32 |  | 43.5 |  |  | MIC (MRSA USA 300 (BAA-1717)): 1.01 mg/L (≈ 3.11 µM); MIC (N. gonorrhoeae 49226): 0.16 mg/L (≈ 0.493 µM)
O=C(Nc1nnc(-c2ccc(F)cc2)o1)N1CCc2cc(F)ccc2C1 [compound 4331] | 3.15 (≈ 8.84 µM) | 34 | > 35 | 3.12 (≈ 1.11 µg/mL) | 12.5 (≈ 4.45 µg/mL) | 4.45 (≈ 12.5 µM) |  | <30 |  |  | MIC (N. gonorrhoeae 49226): 0.089 mg/L (≈ 0.25 µM)
O=C(Nc1nnc(-c2ccc(F)cc2)o1)N1CCc2ccc(F)cc2C1 [compound 4332] | 5 (≈ 14 µM) | 14.4 | > 35 | 3.12 (≈ 1.11 µg/mL) | 3.13 (≈ 1.12 µg/mL) | 7.07 (≈ 19.8 µM) |  | <30 |  |  | MIC (N. gonorrhoeae 49226): 0.089 mg/L (≈ 0.25 µM)
C=CCN(C)C(=O)Nc1nnc(-c2ccc(F)cc2)o1 [compound 4345] | 19.5 (≈ 70.7 µM) |  | > 27 | 25 (≈ 6.91 µg/mL) |  | 27.6 (≈ 99.9 µM) |  |  |  |  | 
O=C(Nc1nnc(-c2ccc(F)cc2)o1)N1CC=C(C(F)(F)F)CC1 [compound 4347] | 2.23 (≈ 6.26 µM) | > 100 | > 27 | 2.48 (≈ 0.884 µg/mL) | 3.1 (≈ 1.1 µg/mL) | > 35 | 93 | <30 | < 0.01 |  | Papp (Caco-2 permeability): 218 nm/s; MIC (N. gonorrhoeae 49226): 0.089 mg/L (≈ 0.25 µM)
CC1=CCN(C(=O)Nc2nnc(-c3ccc(F)cc3)o2)CC1 [compound 4366] |  | 46 |  | 6.25 (≈ 1.89 µg/mL) | 25 (≈ 7.56 µg/mL) |  | 95 | 45 | 0.051 | 4 | Papp (Caco-2 permeability): 673 nm/s
O=C(Nc1nnc(C2CCCC2)o1)c1ccc(Oc2ccccc2)nc1 [compound 4470] |  | > 100 |  | 7.02 (≈ 2.46 µg/mL) | 100 (≈ 35 µg/mL) |  |  | 2 | 0.022 | 7.1 | 
Cc1cccc(-c2nnc(NC(=O)c3ccc(Oc4ccccc4)nc3)o2)c1 [compound 4499] |  | > 100 |  | 1.56 (≈ 0.581 µg/mL) | 25 (≈ 9.31 µg/mL) |  |  | 19 | < 0.01 | 20 | 
O=C(Nc1nnc(-c2ccc(F)cc2)o1)N1CCC(Cl)=C(Cl)C1 [compound 4737] |  | > 100 |  | 0.78 (≈ 0.279 µg/mL) | 6.3 (≈ 2.25 µg/mL) |  | >95 | 21 | < 0.01 | 32 | 
O=C(Nc1nnc(C2CCCCC2)o1)c1ccc(Oc2ccccc2)nc1 [compound 4780] |  |  |  | 1.24 (≈ 0.452 µg/mL) |  |  |  |  | 0.005 |  | 
O=C(Nc1nnc(C2CCCCC2)o1)c1ccc(Oc2cccc(O)c2)cc1 [compound 4801] |  |  |  | 3.13 (≈ 1.19 µg/mL) | 12.5 (≈ 4.74 µg/mL) |  | >95 |  |  | 16 | Papp (Caco-2 permeability): 132 nm/s
O=C(Nc1nnc(C2CCCCC2)o1)N1CCC(Cl)=C(Cl)C1 [compound 4808] |  |  |  | 6.25 (≈ 2.16 µg/mL) |  |  | >95 |  |  |  | Papp (Caco-2 permeability): 245 nm/s
O=C(Nc1nnc(-c2ccc(F)cc2)o1)N1CC(C(F)(F)F)C(C(F)(F)F)C1 (stereo not shown) [compound 4839] |  |  |  | 3.13 (≈ 1.29 µg/mL) | 6.25 (≈ 2.58 µg/mL) |  | >95 |  |  | 12.5 | 
O=C(Nc1nnc(-c2ccc(F)cc2)o1)N1CCC(C(F)(F)F)CC1 [compound 4840] |  |  |  | 6.25 (≈ 2.24 µg/mL) |  |  |  |  |  | 4 | 
CC(C)(C)C1=CCN(C(=O)Nc2nnc(-c3ccc(F)cc3)o2)CC1 [compound 4841] |  |  |  | 6.25 (≈ 2.15 µg/mL) |  |  |  |  |  | 8 | 
O=C(Nc1nnc(-c2ccc(F)cc2)o1)N1CCC2(CCC2)CC1 [compound 4842] |  |  |  | 6.25 (≈ 2.06 µg/mL) |  |  | 77 |  |  | 4 | 
CC1=C(Br)CN(C(=O)Nc2nnc(-c3ccc(F)cc3)o2)CC1 [compound 4923] |  |  |  | 0.78 (≈ 0.297 µg/mL) |  |  | >95 |  |  | 18 | 
